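Cells were grown in 96-well plates and exposed to each compound for 48 hours at five concentrations; endpoints were interpolated linearly between bracketing concentrations, or set to the highest concentration if not reached. Here, GI50 denotes the concentration required for 50% inhibition of growth.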 Calls of active or inactive are those of the source. Cut-off read from the data, not from the text of the source: active = GI50 up to about 1.1 µM and inactive = higher.
Key:
Assay in all cases: inhibition of tumour cell growth, NCI panel, 48 h
[1] = system: CCRF-CEM
[2] = system: HL-60
[3] = system: HCC 2998
[4] = system: A549
[5] = system: SR
[6] = system: XF498
[7] = system: OVCAR-4
[8] = system: BT-549
[9] = system: HCT-116
[10] = system: COLO 205
[11] = system: Hs-578T
[12] = system: PC-3
[13] = system: T47D
[14] = system: SNB-19
[15] = system: A498
[16] = system: MDA-N
[17] = system: SF-268
[18] = system: MDA-MB-231
[19] = system: DU-145
[20] = system: RPMI-8226

Row | Structure (SMILES) | GI50 [1] | GI50 [2] | GI50 [3] | GI50 [4] | GI50 [5] | GI50 [6] | GI50 [7] | GI50 [8] | GI50 [9] | GI50 [10] | GI50 [11] | GI50 [12] | GI50 [13] | GI50 [14] | GI50 [15] | GI50 [16] | GI50 [17] | GI50 [18] | GI50 [19] | GI50 [20]
1 | OCc1nnn2c1CCC2 | > 100 µM (inactive) | > 100 µM (inactive) | > 100 µM (inactive) | > 100 µM (inactive) | > 100 µM (inactive) | > 100 µM (inactive) | 76 µM (inactive) | – | – | – | – | – | – | – | – | – | – | – | – | –
2 | CO/N=C1/c2sccc2[C@H](NC(=O)CNC(=O)OC(C)(C)C)[C@@H]1O | > 100 µM (inactive) | > 100 µM (inactive) | > 100 µM (inactive) | > 100 µM (inactive) | > 100 µM (inactive) | – | > 100 µM (inactive) | > 100 µM (inactive) | > 100 µM (inactive) | > 100 µM (inactive) | > 100 µM (inactive) | > 100 µM (inactive) | > 100 µM (inactive) | > 100 µM (inactive) | > 100 µM (inactive) | > 100 µM (inactive) | > 100 µM (inactive) | > 100 µM (inactive) | > 100 µM (inactive) | –
3 | CC12CC3(C)CC(C)(C1)CC(N=[N+]=[N-])(C2)C3 | > 100 µM (inactive) | – | > 100 µM (inactive) | > 100 µM (inactive) | > 100 µM (inactive) | > 100 µM (inactive) | > 100 µM (inactive) | – | > 100 µM (inactive) | > 100 µM (inactive) | – | – | – | > 100 µM (inactive) | > 100 µM (inactive) | – | > 100 µM (inactive) | – | – | > 100 µM (inactive)
4 | S=c1sc2cscc2s1 | 22 µM (inactive) | 28.1 µM (inactive) | 18.7 µM (inactive) | 19.5 µM (inactive) | 27.8 µM (inactive) | 23.3 µM (inactive) | 16.4 µM (inactive) | – | 19.5 µM (inactive) | 17.7 µM (inactive) | – | – | – | 21.3 µM (inactive) | 71.6 µM (inactive) | – | 31.4 µM (inactive) | – | – | 47.6 µM (inactive)
5 | Cc1[nH]c(=O)[nH]c(=O)c1/C=C/C(=O)NC(CO)C[S+]([O-])C[S+](C)[O-] (stereo not drawn) | 14.6 µM (inactive) | 16.7 µM (inactive) | 9.62 µM (inactive) | 24.4 µM (inactive) | – | 1.74 µM (inactive) | 2.17 µM (inactive) | – | 19.3 µM (inactive) | 30 µM (inactive) | – | – | – | 13.2 µM (inactive) | 21.8 µM (inactive) | – | 4.17 µM (inactive) | – | – | 34.8 µM (inactive)
6 | CN(C)C(=S)/N=c1\ss/c(=N\S(=O)(=O)c2ccccc2)n1-c1ccccc1 | 0.333 µM (active) | 4.33 µM (inactive) | 38.8 µM (inactive) | 14.1 µM (inactive) | – | 19.5 µM (inactive) | 0.185 µM (active) | – | – | – | – | – | – | – | 50.9 µM (inactive) | – | 38.9 µM (inactive) | – | – | 0.344 µM (active)
7 | S=c1nc(Nc2ccc(Br)cc2)c2c3c(sc2[nH]1)CN(N1CCc2c(sc4[nH]c(=S)nc(Nc5ccc(Br)cc5)c24)C1)CC3 | 23.9 µM (inactive) | 17.6 µM (inactive) | 23.1 µM (inactive) | 23 µM (inactive) | 27.5 µM (inactive) | – | 30.2 µM (inactive) | > 50 µM (inactive) | 12.3 µM (inactive) | 23.6 µM (inactive) | > 50 µM (inactive) | 38.8 µM (inactive) | 8.79 µM (inactive) | 22.5 µM (inactive) | 11.3 µM (inactive) | 12.6 µM (inactive) | 33.7 µM (inactive) | 17.9 µM (inactive) | 33.7 µM (inactive) | 19.2 µM (inactive)
8 | O=C1C(c2ccc(C3=[N+]([O-])c4cc([N+](=O)[O-])ccc4C3=O)cc2)=[N+]([O-])c2cc([N+](=O)[O-])ccc21 | > 10 µM (inactive) | > 10 µM (inactive) | > 10 µM (inactive) | > 10 µM (inactive) | – | > 10 µM (inactive) | > 10 µM (inactive) | – | > 10 µM (inactive) | > 10 µM (inactive) | – | – | – | > 10 µM (inactive) | > 10 µM (inactive) | – | – | – | – | > 10 µM (inactive)
9 | COc1ccc(C2C(N)=NCC2c2ccccn2)cc1 (stereo not drawn) | > 100 µM (inactive) | – | > 100 µM (inactive) | > 100 µM (inactive) | > 100 µM (inactive) | > 100 µM (inactive) | > 100 µM (inactive) | – | > 100 µM (inactive) | > 100 µM (inactive) | – | – | – | > 100 µM (inactive) | > 100 µM (inactive) | – | > 100 µM (inactive) | – | – | > 100 µM (inactive)
10 | Cc1cc(C)c2c(n1)S(=O)(=O)N(CCCN1CCN(c3cccc(C(F)(F)F)c3)CC1)C(C(=O)c1ccccc1)=C2O | 5.19 µM (inactive) | 2.61 µM (inactive) | – | 4.55 µM (inactive) | 2.93 µM (inactive) | – | 4.66 µM (inactive) | 16 µM (inactive) | 4.38 µM (inactive) | 3.31 µM (inactive) | 17.6 µM (inactive) | 9.82 µM (inactive) | 13.1 µM (inactive) | 5.53 µM (inactive) | 8.57 µM (inactive) | 5.5 µM (inactive) | 8.51 µM (inactive) | 20.3 µM (inactive) | 13.4 µM (inactive) | –
11 | COc1ccc2[nH]c(Cl)c(/C=C3/C(=O)Nc4cc(C)c(OC)cc43)c2c1 | 3.43 µM (inactive) | 1.91 µM (inactive) | 4.89 µM (inactive) | 5.26 µM (inactive) | 3.08 µM (inactive) | – | – | 3.2 µM (inactive) | 4.59 µM (inactive) | 2.02 µM (inactive) | 3.81 µM (inactive) | 3.33 µM (inactive) | 5.96 µM (inactive) | 8.26 µM (inactive) | 5.82 µM (inactive) | 1.58 µM (inactive) | 5.75 µM (inactive) | 3.81 µM (inactive) | 14.3 µM (inactive) | 4.32 µM (inactive)
